# Experimental data taken from patent US20230000813A1, “COMPOUND FOR THE TREATMENT OF BOVINE OR SWINE RESPIRATORY DISEASE” (Intervet Inc., priority 2016, published 2023).
# System: Mannheimia haemolytica MH 13065 (XB0446-6003.9, BRD field isolate)
# Assay: MIC, broth-microdilution (CLSI VET01-A4)
# Assay type: cell-based
# Settings: not given
# Outline: (§1)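 MIC read by eye as lowest compound concentration without visible growth (no turbidity), interpreted per CLSI VET01-S3. Doubling-dilution broth-microdilution trays, run according to CLSI VET01-A4.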
row,SMILES,MIC
1,C[C@@H](O)[C@H](NC(=O)c1ccc(C#Cc2ccc(CNCc3cccnc3)cc2)cc1)C(=O)NO [Compound 256],0.8 µM
2,CCC(C)C(NC(=O)c1ccc(C#Cc2ccc(CNCc3cccs3)cc2)cc1)C(=O)NO (centres unmarked) [Compound 302],0.8 µM
3,CC(C)([C@H](NC(=O)c1ccc(C#Cc2ccc(CNCC#N)cc2)cc1)C(=O)NO)S(C)(=O)=O [Compound 612],0.8 µM
4,CC(C)(C(NC(=O)c1ccc(C#Cc2ccc(CNCc3ccncc3)cc2)cc1)C(=O)NO)S(C)(=O)=O (centres unmarked) [C. 607],0.4 µM
5,CSC(C)(C)[C@H](NC(=O)c1ccc(C#Cc2ccc(CNCc3nccs3)nc2)cc1)C(=O)NO [Compound 744],0.8 µM

# System: Mannheimia haemolytica MH 13093 (XB0472-6014.1, BRD field isolate)
# Assay: MIC, broth-microdilution (CLSI VET01-A4)
# Assay type: cell-based
# Settings: not given
# Outline: as §1
row,SMILES,MIC
1,C[C@@H](O)[C@H](NC(=O)c1ccc(C#Cc2ccc(CNCc3cccnc3)cc2)cc1)C(=O)NO [Compound 256],0.8 µM
2,CCC(C)C(NC(=O)c1ccc(C#Cc2ccc(CNCc3cccs3)cc2)cc1)C(=O)NO (centres unmarked) [Compound 302],0.8 µM
3,CC(C)([C@H](NC(=O)c1ccc(C#Cc2ccc(CNCC#N)cc2)cc1)C(=O)NO)S(C)(=O)=O [Compound 612],0.8 µM
4,CC(C)(C(NC(=O)c1ccc(C#Cc2ccc(CNCc3ccncc3)cc2)cc1)C(=O)NO)S(C)(=O)=O (centres unmarked) [C. 607],0.4 µM
5,CSC(C)(C)[C@H](NC(=O)c1ccc(C#Cc2ccc(CNCc3nccs3)nc2)cc1)C(=O)NO [Compound 744],1.6 µM

# System: Pasteurella multocida PM 6267 (P 2225 (L386), reference strain, mouse infection strain)
# Assay: MIC, broth-microdilution (CLSI VET01-A4)
# Assay type: cell-based
# Settings: Pasteurella multocida PM 6267
# Outline: (§2)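 Compounds were tested in microdilution trays as twofold serial dilutions. The MIC was taken as the lowest concentration with no turbidity visible to the unaided eye, and results were interpreted per CLSI VET01-S3.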
row,SMILES,MIC PM 6267
1,C[C@@H](O)[C@H](NC(=O)c1ccc(C#Cc2ccc(CNCc3cccnc3)cc2)cc1)C(=O)NO [Compound 256],<=0.1 μM
2,CC(C)([C@H](NC(=O)c1ccc(C#Cc2ccc(CNCC#N)cc2)cc1)C(=O)NO)S(C)(=O)=O [Compound 612],<=0.1 μM
3,CC(C)(C(NC(=O)c1ccc(C#Cc2ccc(CNCc3ccncc3)cc2)cc1)C(=O)NO)S(C)(=O)=O (centres unmarked) [C. 607],<=0.1 μM

# Same assay, conditions: Pasteurella multocida PM 6267; read-out: MIC PM 6267
row,SMILES,MIC
1,CCC(C)C(NC(=O)c1ccc(C#Cc2ccc(CNCc3cccs3)cc2)cc1)C(=O)NO (centres unmarked) [Compound 302],0.2 µM
2,CSC(C)(C)[C@H](NC(=O)c1ccc(C#Cc2ccc(CNCc3nccs3)nc2)cc1)C(=O)NO [Compound 744],0.4 µM

# System: Pasteurella multocida PM 10775 (080130003051, BRD field isolate)
# Assay: MIC, broth-microdilution (CLSI VET01-A4)
# Assay type: cell-based
# Settings: Pasteurella multocida PM 10775
# Outline: as §2
row,SMILES,MIC PM 10775
1,C[C@@H](O)[C@H](NC(=O)c1ccc(C#Cc2ccc(CNCc3cccnc3)cc2)cc1)C(=O)NO [Compound 256],<=0.1 μM
2,CCC(C)C(NC(=O)c1ccc(C#Cc2ccc(CNCc3cccs3)cc2)cc1)C(=O)NO (centres unmarked) [Compound 302],<=0.1 μM
3,CC(C)([C@H](NC(=O)c1ccc(C#Cc2ccc(CNCC#N)cc2)cc1)C(=O)NO)S(C)(=O)=O [Compound 612],<=0.1 μM
4,CC(C)(C(NC(=O)c1ccc(C#Cc2ccc(CNCc3ccncc3)cc2)cc1)C(=O)NO)S(C)(=O)=O (centres unmarked) [C. 607],<=0.1 μM
5,CSC(C)(C)[C@H](NC(=O)c1ccc(C#Cc2ccc(CNCc3nccs3)nc2)cc1)C(=O)NO [Compound 744],<=0.1 μM

# System: Mannheimia haemolytica MH 6357 (M7/2, reference strain, cattle infection strain)
# Assay: MIC, broth-microdilution (CLSI VET01-A4)
# Assay type: cell-based
# Settings: Mannheimia haemolytica MH 6357; read-out: MIC MH 6357
# Outline: as §2
row,SMILES,MIC
1,C[C@@H](O)[C@H](NC(=O)c1ccc(C#Cc2ccc(CNCc3cccnc3)cc2)cc1)C(=O)NO [Compound 256],0.4 µM
2,CCC(C)C(NC(=O)c1ccc(C#Cc2ccc(CNCc3cccs3)cc2)cc1)C(=O)NO (centres unmarked) [Compound 302],0.4 µM
3,CC(C)([C@H](NC(=O)c1ccc(C#Cc2ccc(CNCC#N)cc2)cc1)C(=O)NO)S(C)(=O)=O [Compound 612],0.8 µM
4,CC(C)(C(NC(=O)c1ccc(C#Cc2ccc(CNCc3ccncc3)cc2)cc1)C(=O)NO)S(C)(=O)=O (centres unmarked) [C. 607],0.4 µM
5,CSC(C)(C)[C@H](NC(=O)c1ccc(C#Cc2ccc(CNCc3nccs3)nc2)cc1)C(=O)NO [Compound 744],0.8 µM

# System: Mannheimia haemolytica MH 12587 (1071, BRD field isolate, macrolide-resistance: erm+, E+)
# Assay: MIC, broth-microdilution (CLSI VET01-A4)
# Assay type: cell-based
# Settings: Mannheimia haemolytica MH 12587, macrolide-resistant
# Outline: as §2
row,SMILES,MIC MH 12587
1,C[C@@H](O)[C@H](NC(=O)c1ccc(C#Cc2ccc(CNCc3cccnc3)cc2)cc1)C(=O)NO [Compound 256],1.6 µM
2,CCC(C)C(NC(=O)c1ccc(C#Cc2ccc(CNCc3cccs3)cc2)cc1)C(=O)NO (centres unmarked) [Compound 302],1.6 µM
3,CC(C)([C@H](NC(=O)c1ccc(C#Cc2ccc(CNCC#N)cc2)cc1)C(=O)NO)S(C)(=O)=O [Compound 612],1.6 µM
4,CC(C)(C(NC(=O)c1ccc(C#Cc2ccc(CNCc3ccncc3)cc2)cc1)C(=O)NO)S(C)(=O)=O (centres unmarked) [C. 607],0.8 µM
5,CSC(C)(C)[C@H](NC(=O)c1ccc(C#Cc2ccc(CNCc3nccs3)nc2)cc1)C(=O)NO [Compound 744],1.6 µM

# System: Mannheimia haemolytica MH 10720 (154, BRD field isolate)
# Assay: MIC, broth-microdilution (CLSI VET01-A4)
# Assay type: cell-based
# Settings: Mannheimia haemolytica MH 10720
# Outline: as §2
row,SMILES,MIC MH 10720
1,C[C@@H](O)[C@H](NC(=O)c1ccc(C#Cc2ccc(CNCc3cccnc3)cc2)cc1)C(=O)NO [Compound 256],<=0.1 μM
2,CC(C)([C@H](NC(=O)c1ccc(C#Cc2ccc(CNCC#N)cc2)cc1)C(=O)NO)S(C)(=O)=O [Compound 612],<=0.1 μM
3,CC(C)(C(NC(=O)c1ccc(C#Cc2ccc(CNCc3ccncc3)cc2)cc1)C(=O)NO)S(C)(=O)=O (centres unmarked) [C. 607],<=0.1 μM

# Same assay, conditions: Mannheimia haemolytica MH 10720; read-out: MIC MH 10720
row,SMILES,MIC
1,CCC(C)C(NC(=O)c1ccc(C#Cc2ccc(CNCc3cccs3)cc2)cc1)C(=O)NO (centres unmarked) [Compound 302],0.2 µM
2,CSC(C)(C)[C@H](NC(=O)c1ccc(C#Cc2ccc(CNCc3nccs3)nc2)cc1)C(=O)NO [Compound 744],0.4 µM

# System: Pasteurella multocida PM 6391 (ATCC 43137, reference strain)
# Assay: MIC, broth-microdilution (CLSI VET01-A4)
# Assay type: cell-based
# Settings: Pasteurella multocida PM 6391
# Outline: as §2
row,SMILES,MIC PM 6391
1,C[C@@H](O)[C@H](NC(=O)c1ccc(C#Cc2ccc(CNCc3cccnc3)cc2)cc1)C(=O)NO [Compound 256],<=0.1 μM
2,CC(C)([C@H](NC(=O)c1ccc(C#Cc2ccc(CNCC#N)cc2)cc1)C(=O)NO)S(C)(=O)=O [Compound 612],<=0.1 μM
3,CC(C)(C(NC(=O)c1ccc(C#Cc2ccc(CNCc3ccncc3)cc2)cc1)C(=O)NO)S(C)(=O)=O (centres unmarked) [C. 607],<=0.1 μM

# Same assay, conditions: Pasteurella multocida PM 6391; read-out: MIC PM 6391
row,SMILES,MIC
1,CCC(C)C(NC(=O)c1ccc(C#Cc2ccc(CNCc3cccs3)cc2)cc1)C(=O)NO (centres unmarked) [Compound 302],0.8 µM
2,CSC(C)(C)[C@H](NC(=O)c1ccc(C#Cc2ccc(CNCc3nccs3)nc2)cc1)C(=O)NO [Compound 744],0.4 µM

# System: Mannheimia haemolytica MH 6374 (ATCC 33396, reference strain)
# Assay: MIC, broth-microdilution (CLSI VET01-A4)
# Assay type: cell-based
# Settings: Mannheimia haemolytica MH 6374; read-out: MIC MH 6374
# Outline: as §2
row,SMILES,MIC
1,C[C@@H](O)[C@H](NC(=O)c1ccc(C#Cc2ccc(CNCc3cccnc3)cc2)cc1)C(=O)NO [Compound 256],0.4 µM
2,CCC(C)C(NC(=O)c1ccc(C#Cc2ccc(CNCc3cccs3)cc2)cc1)C(=O)NO (centres unmarked) [Compound 302],1.6 µM
3,CC(C)([C@H](NC(=O)c1ccc(C#Cc2ccc(CNCC#N)cc2)cc1)C(=O)NO)S(C)(=O)=O [Compound 612],0.4 µM
4,CC(C)(C(NC(=O)c1ccc(C#Cc2ccc(CNCc3ccncc3)cc2)cc1)C(=O)NO)S(C)(=O)=O (centres unmarked) [C. 607],0.4 µM
5,CSC(C)(C)[C@H](NC(=O)c1ccc(C#Cc2ccc(CNCc3nccs3)nc2)cc1)C(=O)NO [Compound 744],0.8 µM

# System: Pasteurella multocida PM 12080 (IV102277-0093, BRD field isolate)
# Assay: MIC, broth-microdilution (CLSI VET01-A4)
# Assay type: cell-based
# Settings: Pasteurella multocida PM 12080
# Outline: as §2
row,SMILES,MIC PM 12080
1,C[C@@H](O)[C@H](NC(=O)c1ccc(C#Cc2ccc(CNCc3cccnc3)cc2)cc1)C(=O)NO [Compound 256],<=0.1 μM
2,CC(C)([C@H](NC(=O)c1ccc(C#Cc2ccc(CNCC#N)cc2)cc1)C(=O)NO)S(C)(=O)=O [Compound 612],<=0.1 μM
3,CC(C)(C(NC(=O)c1ccc(C#Cc2ccc(CNCc3ccncc3)cc2)cc1)C(=O)NO)S(C)(=O)=O (centres unmarked) [C. 607],<=0.1 μM

# Same assay, conditions: Pasteurella multocida PM 12080; read-out: MIC PM 12080
row,SMILES,MIC
1,CCC(C)C(NC(=O)c1ccc(C#Cc2ccc(CNCc3cccs3)cc2)cc1)C(=O)NO (centres unmarked) [Compound 302],0.2 µM
2,CSC(C)(C)[C@H](NC(=O)c1ccc(C#Cc2ccc(CNCc3nccs3)nc2)cc1)C(=O)NO [Compound 744],0.2 µM
